Assay results from ChEMBL document CHEMBL2113921, “Open Source Malaria Deposition 1. http://malaria.ourexperiment.org” (2013).

Assays:
Plasmodium falciparum [1] = experiment: OSM: Inhibition of Plasmodium falciparum 3D7 growth. IC50 values determined from 21 point dose response curves. Avery Group Griffith.; assay type: functional, organism-based
Plasmodium falciparum [2] = experiment: OSM: Inhibition of Plasmodium falciparum 3D7 growth using a SYBR green I fluorescence based assay. Dose response curves were generated comprising of 8 points using a 2-fold serial dilution for the maximum final concentration of 1000 nM. Ralph Group, Bio21.; assay type: functional, organism-based
Plasmodium falciparum [3] = experiment: OSM: Inhibition of Plasmodium falciparum 3D7 growth using a SYBR green I fluorescence based assay. GSK Tres Cantos.; assay type: functional, organism-based
Plasmodium falciparum K1 [4] = experiment: OSM: Percent inhibition of Plasmodium falciparum K1 growth at 120 uM. Avery Group Griffith.; assay type: functional
[5] = OSM: HEK293 cytotoxicity assay. Duplicate point single experiment at 120 uM. Avery Group, Griffith.; assay type: toxicity, cell-based; conditions: human, HEK293 cells; read-out: Inhibition
Plasmodium falciparum [6] = experiment: OSM: Percent inhibition of Plasmodium falciparum 3D7 growth at 120 uM. Avery Group Griffith.; assay type: functional
Plasmodium falciparum K1 [7] = experiment: OSM: Inhibition of Plasmodium falciparum K1 growth. IC50 values determined from 21 point dose response curves. Avery Group Griffith.; assay type: functional, organism-based

Row | SMILES | IC50 (Plasmodium falciparum [1]) [µM] | further results
1 | CCNC(=O)C1CC(N)CN1Cc1cc(C)n(-c2ccccc2Cl)c1C (stereo not given) | 24.7 | –
2 | Cc1cc(C(=O)NCC(=O)N(C)C)c(C)n1-c1ccccc1 | > 40 | –
3 | Cc1c(-c2nc(C(=O)O)co2)cnn1-c1ccc(F)cc1 | > 40 | –
4 | Cc1cc(/C=C2\S/C(=N\c3ccccc3)NC2=O)c(C)n1-c1ccccn1 | 0.307 | IC50 (Plasmodium falciparum [2]): 0.442 µM; IC50 (Plasmodium falciparum [3]): 0.309 µM
5 | Cc1cc(C(=O)CCC(=O)N(C)C)c(C)n1-c1ccc(F)cc1 | > 40 | –
6 | Cc1cc(C(=O)O)c(C)n1-c1ccc(F)cc1 | – | IC50 (Plasmodium falciparum [3]): > 5 µM; inhibition at 120 µM (Plasmodium falciparum K1 [4]): 50%; cytotoxicity at 120 µM [5]: 20%; inhibition at 120 µM (Plasmodium falciparum [6]): 75%
7 | Clc1ncnc2ccsc12 | 9.4 | –
8 | Cc1cc(C=O)c(C)n1-c1ccc(F)cc1 | – | IC50 (Plasmodium falciparum [3]): > 5 µM; inhibition at 120 µM (Plasmodium falciparum K1 [4]): 50%; cytotoxicity at 120 µM [5]: 25%; inhibition at 120 µM (Plasmodium falciparum [6]): 60%
9 | CCOC(=O)C(C)OC(=O)c1cc(C)n(-c2ccc(F)cc2)c1C (stereo not given) | > 40 | –
10 | CN(C)C(=O)n1cnc(S(=O)(=O)N(C)c2ccccc2)n1 | 0.333 | –
11 | COC(=O)c1coc(-c2cc(C)n(-c3ccc(F)cc3)c2C)n1 | > 40 | –
12 | CNS(=O)(=O)c1ccc(CNc2ncnc3cc(-c4ccc(OC)cc4)sc23)s1 | 17.6 | –
13 | CNC(=O)CN1CCC(NCc2cc(C)n(-c3ccc(Cl)cc3)c2C)CC1 | 14.7 | –
14 | Cc1cc(C=O)c(C)n1-c1ccccc1 | – | inhibition at 120 µM (Plasmodium falciparum K1 [4]): 80%; cytotoxicity at 120 µM [5]: 25%; inhibition at 120 µM (Plasmodium falciparum [6]): 55%
15 | Cc1cc(C(=O)N(C(=O)NC2CCCCC2)C2CCCCC2)c(C)n1-c1ccc(F)cc1 | 7.8 | –
16 | Cc1cc(CNCC(N)=O)c(C)n1-c1ccc(F)cc1 | > 40 | –
17 | CC(=O)N(C1=NC(=O)/C(=C/c2cc(C)n(-c3ccccc3)c2C)S1)c1ccccc1 | 0.063 | IC50 (Plasmodium falciparum [2]): 0.028 µM; IC50 (Plasmodium falciparum [3]): 0.085 µM
18 | Oc1ncnc2cc(I)sc12 | > 40 | –
19 | Nc1ncnc2ccsc12 | > 40 | –
20 | CCc1ccc(-n2c(C)cc(CN3CCC(C(=O)O)CC3)c2C)cc1 | > 40 | –
21 | CCOC(=O)c1ccc(-n2c(C)cc(/C=C3\S/C(=N/c4ccccc4)NC3=O)c2C)cc1 | 0.169 | IC50 (Plasmodium falciparum [2]): 0.339 µM; IC50 (Plasmodium falciparum [3]): 0.267 µM
22 | Cc1cc(-c2nc(C(=O)O)co2)c(C)n1-c1ccc(F)cc1 | > 40 | –
23 | Cc1cc(C(=O)N(C)CC(N)=O)c(C)n1-c1ccc(F)cc1 | > 40 | –

Row | SMILES | IC50 (Plasmodium falciparum [1]) [µM] | further results
24 | CCOC(=O)c1cc(C)n(-c2ccc(C)cc2)c1C | – | inhibition at 120 µM (Plasmodium falciparum K1 [4]): 50%; cytotoxicity at 120 µM [5]: 0%; inhibition at 120 µM (Plasmodium falciparum [6]): 85%
25 | Cc1ccc(-n2c(C)cc(C(=O)O)c2C)cc1 | – | inhibition at 120 µM (Plasmodium falciparum K1 [4]): 0%; cytotoxicity at 120 µM [5]: 0%; inhibition at 120 µM (Plasmodium falciparum [6]): 70%
26 | CCOc1ccc(Nc2ncnc3ccsc23)cc1S(=O)(=O)N(C)C | > 40 | –
27 | Cc1cc(C(=O)O)c(C)n1-c1ccc(C(F)(F)F)cc1 | – | inhibition at 120 µM (Plasmodium falciparum K1 [4]): 0%; cytotoxicity at 120 µM [5]: 0%; inhibition at 120 µM (Plasmodium falciparum [6]): 25%
28 | COc1ccc(S(=O)(=O)N2CCC(Nc3ncnc4ccsc34)CC2)cc1 | > 40 | –
29 | C[C@@H]1CC[C@H]2[C@@H](C)C(=O)O[C@@H]3O[C@@]4(C)CC[C@@H]1[C@]32OO4 [ARTEMISININ] | 41.1 | cytotoxicity at 120 µM [5]: 25%; IC50 (Plasmodium falciparum K1 [7]): 0.001 µM
30 | CNC(=O)COC(=O)c1cc(C)n(-c2ccc(F)cc2)c1C | 9.4 | –
31 | COC(=O)[C@H](CO)NC(=O)c1cc(C)n(-c2ccc(F)cc2)c1C | > 40 | –
32 | c1nc(N2CCOCC2)c2sccc2n1 | > 40 | –
33 | Cc1cc(/C=C2\S/C(=N\c3ccccc3)N(c3ccccc3)C2=O)c(C)n1-c1ccc(C(F)(F)F)cc1 | 0.054 | IC50 (Plasmodium falciparum [2]): 0.485 µM; IC50 (Plasmodium falciparum [3]): 0.372 µM
34 | NC(=O)COC(=O)c1cnn(-c2ccc(F)cc2)c1 | > 40 | –
35 | Cc1cc(C(=O)NCC(=O)Nc2c(C)n(C)n(-c3ccccc3)c2=O)c(C)n1-c1ccc(F)cc1 | 31 | IC50 (Plasmodium falciparum [2]): > 1 µM; IC50 (Plasmodium falciparum [3]): > 5 µM
36 | CN(C)C(=O)n1cnc(SCc2ccccc2)n1 | 0.438 | –
37 | Cc1cc(C(=O)CCC(=O)O)c(C)n1-c1ccc(F)cc1 | > 40 | –
38 | CC(=O)N(C1=NC(=O)/C(=C/c2cc(C)n(-c3ccc(C(F)(F)F)cc3)c2C)S1)c1ccccc1 | 0.012 | IC50 (Plasmodium falciparum [2]): 0.008 µM; IC50 (Plasmodium falciparum [3]): 0.026 µM
39 | Cc1cc(C(=O)N2CCNC(=O)C2)c(C)n1-c1ccccc1 | > 40 | –
40 | CC(=O)N(C1=NC(=O)/C(=C/c2cc(C)n(-c3ccc(C)cc3)c2C)S1)c1ccccc1 | 0.326 | IC50 (Plasmodium falciparum [2]): 0.156 µM; IC50 (Plasmodium falciparum [3]): 0.025 µM
41 | O=C1C(O)=C([C@H]2CC[C@H](c3ccc(Cl)cc3)CC2)C(=O)c2ccccc21 [ATOVAQUONE] | – | IC50 (Plasmodium falciparum [3]): 0.001 µM
42 | Cc1cc(CN(C)CC(N)=O)c(C)n1-c1ccc(F)cc1 | > 40 | –
43 | Cc1cc(C(=O)N(C)C)c(C)n1-c1ccc(F)cc1 | > 40 | –
44 | CNC(=O)CCC(=O)c1cc(C)n(-c2ccc(F)cc2)c1C | > 40 | –
45 | Cc1ccc(Nc2ncnc3ccsc23)cc1S(=O)(=O)N(C)C | > 40 | –
46 | Cc1cc(CNC2CCN(Cc3ccccc3)CC2)c(C)n1-c1ccc(F)cc1 | 4.8 | –

Row | SMILES | IC50 (Plasmodium falciparum [1]) [µM] | further results
47 | COC(=O)c1coc(-c2cnn(-c3ccc(F)cc3)c2C)n1 | > 40 | –
48 | CCN(CC(=O)Nc1c(F)cccc1F)C(=O)c1cc(C)n(-c2ccc(F)cc2)c1C | > 40 | –
49 | c1ccc(CSc2nc[nH]n2)cc1 | > 40 | –
50 | O=S(=O)(Nc1ncnc2sc(-c3ccccc3)cc12)c1ccccc1 | > 40 | –
51 | CCOC(=O)c1cc(C)n(-c2ccc(F)cc2)c1C | 12 | IC50 (Plasmodium falciparum [3]): > 5 µM; cytotoxicity at 120 µM [5]: 25%; IC50 (Plasmodium falciparum K1 [7]): 12.4 µM
52 | Cc1c(C(=O)OCC(N)=O)cnn1-c1ccccc1 | > 40 | –
53 | COC(=O)[C@@H]1COC(c2cc(C)n(-c3ccc(F)cc3)c2C)=N1 | > 40 | –
54 | Cc1cc(/C=C2\SC(N(CC#N)c3ccccc3)=NC2=O)c(C)n1-c1ccc(C(F)(F)F)cc1 | – | IC50 (Plasmodium falciparum [2]): > 1 µM; IC50 (Plasmodium falciparum [3]): > 5 µM
55 | CCOC(=O)c1cc(C)n(-c2ccc(C(F)(F)F)cc2)c1C | – | inhibition at 120 µM (Plasmodium falciparum K1 [4]): 20%; cytotoxicity at 120 µM [5]: 75%; inhibition at 120 µM (Plasmodium falciparum [6]): 85%
56 | CCOC(=O)c1cc(C)n(-c2ccccc2)c1C | – | inhibition at 120 µM (Plasmodium falciparum K1 [4]): 0%; cytotoxicity at 120 µM [5]: 0%; inhibition at 120 µM (Plasmodium falciparum [6]): 80%
57 | Cc1cc(/C=C2\S/C(=N\c3ccccc3)N(CC#N)C2=O)c(C)n1-c1ccc(C(F)(F)F)cc1 | 3.12 | IC50 (Plasmodium falciparum [2]): > 1 µM; IC50 (Plasmodium falciparum [3]): > 5 µM
58 | Cc1cc(C(=O)OC(C)(C)C(N)=O)c(C)n1-c1ccc(F)cc1 | > 40 | –
59 | COc1cccc(NC(=O)CSc2nnc(-c3cc(C)n(-c4ccccc4)c3C)o2)c1 | > 40 | –
60 | NS(=O)(=O)c1ccc(CNc2nc(-c3ccsc3)nc3ccccc23)cc1 | > 40 | –
61 | COC(=O)c1sccc1NC=O | > 40 | –
62 | Cc1cc(C(=O)OC(C)C(=O)O)c(C)n1-c1ccc(F)cc1 (stereo not given) | > 40 | –
63 | NS(=O)(=O)c1cccc(CNc2ncnc3ccsc23)c1 | > 40 | –
64 | C[C@H]1[C@H](OC(=O)CCC(=O)O)O[C@@H]2O[C@@]3(C)CC[C@H]4[C@H](C)CC[C@@H]1[C@@]24OO3 [ARTESUNATE] | – | IC50 (Plasmodium falciparum [3]): 0.019 µM
65 | Cc1c(-c2nc(C(N)=O)co2)cnn1-c1ccc(F)cc1 | > 40 | –
66 | Cc1cc(C(=O)O)c(C)n1-c1ccccc1 | – | inhibition at 120 µM (Plasmodium falciparum K1 [4]): 50%; cytotoxicity at 120 µM [5]: 0%; inhibition at 120 µM (Plasmodium falciparum [6]): 70%
67 | Cc1cc(C(=O)OCC(=O)N(C)C)c(C)n1-c1ccc(F)cc1 | 11.3 | –
68 | CC(Nc1ncnc2ccsc12)c1cccc(S(N)(=O)=O)c1 (stereo not given) | > 40 | –
